Measurements as given in patent US11701370B2, “Phosphonium ion channel blockers and methods for use” (Nocion Therapeutics, Inc., priority 2019, dated 2023).
Counter-ions that a name gives are not always drawn.

Experiments:
[1] = molecular target: T1, NaV1.7 (Homo sapiens, UniProt Q15858); experiment: Internal block: intracellular inhibition of NaV1.7 current, whole cell patch clamp; type: cell-based; settings: compound in internal solution; for inhibition at 3 µM: 3 μM test concentration; for inhibition at 10 µM: 10 μM test concentration
T1 construct: expressed in transfected cells; tetracycline-inducible, kept under hygromycin and blasticidin selection
Description: (§1) NaV1.7 was expressed upon induction with tetracycline. Cells were cultured in DMEM containing 10% dialyzed Fetal Bovine Serum (VWR, Radnor, Pa.), 1% Glutamax (VWR, Radnor, Pa.), 1% Penicillin-Streptomycin (VWR, Radnor, Pa.), 100 mg/L Hygromycin (Thermo Fisher Scientific, Waltham, Mass. and 5 mg/L Blasticidin (Alfa Aesar, Haverhill, Mass.). Cells were grown and maintained at 37° C. in a humidified environment containing 10% CO2 in air. Cells were detached from the culture flask for passage and harvested using 0.05% Trypsin-EDTA (Thermo Fisher Scientific, Waltham, Mass.). To induce NaV1.7, cells were induced with tetracycline (0.1-1 μg/mL, IBI Scientific, Peosta, Iowa) the day before recording and plated onto 24-well plates. Cells were washed with DPBS (VWR, Radnor, Pa.), trypsinized and then triturated five times in 10 mL of growth media to break apart cell aggregates. For one 24-well plate, 2 mL of cell suspension was mixed with 23 mL of fresh growth media and 0.1-1 μg/mL tetracycline added. 1 ml of mixed media with cells was then added to each well of a 24-well plate, with a 12 mm coverslip already placed in the bottom of the well. Cells were then incubated in 37° C. and 10% CO2 overnight.
(§2) The intracellular solution contained the following (in mM) CsCl 135, NaCl 10, EGTA 10, HEPES 10, MgCl22, adjusted to pH 7.2 with CsOH. The external solution was a normal Ringer solution containing (in mM) NaCl 155, HEPES 10, glucose 10, KCl 3.5, CaCl2 1.5, MgCl2 1 adjusted to pH 7.4 with NaOH. CsCl is from Alfa Aesar, Haverhill, Mass. All other chemicals are from Sigma-Aldrich, St. Louis, Mo. In order to test the degree of internal block by test compounds the compounds were dissolved in internal solution at the indicated test concentration. […] In order to test the degree of external block by test compounds the compounds were dissolved in external solution at the indicated test concentration.
(§3) 18-24 hours after cells were induced with tetracycline, coverslips were placed into a chamber filled with Normal Ringer solution at room temperature and the chamber placed on a microscope. Pipettes were pulled from borosilicate glass on a P97 puller (Sutter Instrument, Novato, Calif.) and polished with a MF-830 Microforge (Narishige International USA, Inc, Amityville, N.Y.) to have a resistance of 1.5-2.5 MΩ when filled with CsCl internal solution at room temperature. Healthy cells (those that are round and translucent with no visible blemishes) were chosen for seal formation. A seal was formed between the pipette and the cell, and a brief pulse of suction was used to “break in” and establish the whole-cell configuration. The membrane potential was held at −100 mV before the voltage protocol began. Only cells with series resistance between 1.5-5 MΩ were retained for analysis. The voltage protocol was as follows: Cells were held at −100 mV for 12 ms followed by a hyperpolarizing step to −105 mV for 12 ms to monitor the leak. Cells were then stepped back to −100 mV for 40 ms. Cells were then depolarized to −20 mV for 10 ms and then returned to −100 mV for 26 ms (FIG. 1).
(§4) Once the recording was started, the voltage protocol was run at 30 second intervals for 5 minutes to get a stable baseline. This was followed by four 30-second periods of 5 Hz stimulation of the same voltage protocol separated by 1 minute of rest which was then followed by 0.33 Hz stimulation after the last train. Currents were recorded using PatchMaster software with Heka EPC10 (HEKA Electronics, Lambrecht, Germany). Only cells with inward current amplitudes at −20 mV between 400 pA and 4 nA were accepted. In addition, cells having leak currents greater than 10% of their current amplitudes were discarded.
(§5) The data was plotted using the Patchmaster software (HEKA Electronics, Lambrecht, Germany) and analyzed by plotting the minimum current during the voltage step to −20 mV (peak inward current) as a function of time. […]

[2] = molecular target: T1, NaV1.7; experiment: External block: extracellular inhibition of NaV1.7 current, whole cell patch clamp; type: cell-based; settings: compound in external solution; for inhibition at 3 µM: 3 μM test concentration; for inhibition at 10 µM: 10 μM test concentration
Description: as §1, §2, §3
as §4, with “This is” for “This was”, “by” for “by four 30-second periods of”, “protocol run until the end” for “protocol separated by 1 minute”, “of experiment. […] The test compound is added for 5 minutes before washing out with normal Ringer's solution.” for “of rest which was then followed by 0.33 Hz stimulation after the last train.”
as §5

[3] = PAMPA membrane permeability assay (artificial lipid membrane, passive diffusion); type: in vitro ADME; settings: pH 7.4 buffer, GIT lipid, 4 hours incubation
Description: The PAMPA assay (pION, Inc., Woburn Mass.) was used to determine the ability of compounds of the invention to cross an artificial lipid membrane by passive diffusion. Test compounds were dissolved in DMSO (10 mM) and diluted 200-fold in buffer (pION Inc., pH 7.4) to provide 50 uM stock solutions. Buffer (150 μL) was added to a UV blank plate and stock solutions (150 μL) were transferred to a UV reference plate. The blank and reference spectrum were read using a spectrophotometer. Stock solutions (200 μL) were added to the donor plate of the PAMPA sandwich plate and an accept plate painted with GIT lipid (pION Inc, 5 μL) was placed on top. Buffer (200 μL) was added to the acceptor plate and the PAMPA sandwich plate was incubated for 4 hours. Aliquots (150 μL) from the acceptor plate were added to a UV plate and read as acceptor spectrum. Aliquots (150 μL) of the donor solutions were added to a UV analysis plate and read as donor spectrum. The permeability coefficient of test compounds was calculated using PAMPA Explorer™ software (version 3.5.0.4) based on the AUC of the reference plate, the donor plate, and the acceptor plate.
The PAMPA permeability results (10^−6 cm/s) of representative compounds are reported as “+” (<0.1 10^−6 cm/s), “++” (0.1-2.0 10^−6 cm/s), “+++” (2.0-10.010^−6 cm/s) or “++++” (>10.0 10^−6 cm/s).

T1 sequence (Q15858 whole entry): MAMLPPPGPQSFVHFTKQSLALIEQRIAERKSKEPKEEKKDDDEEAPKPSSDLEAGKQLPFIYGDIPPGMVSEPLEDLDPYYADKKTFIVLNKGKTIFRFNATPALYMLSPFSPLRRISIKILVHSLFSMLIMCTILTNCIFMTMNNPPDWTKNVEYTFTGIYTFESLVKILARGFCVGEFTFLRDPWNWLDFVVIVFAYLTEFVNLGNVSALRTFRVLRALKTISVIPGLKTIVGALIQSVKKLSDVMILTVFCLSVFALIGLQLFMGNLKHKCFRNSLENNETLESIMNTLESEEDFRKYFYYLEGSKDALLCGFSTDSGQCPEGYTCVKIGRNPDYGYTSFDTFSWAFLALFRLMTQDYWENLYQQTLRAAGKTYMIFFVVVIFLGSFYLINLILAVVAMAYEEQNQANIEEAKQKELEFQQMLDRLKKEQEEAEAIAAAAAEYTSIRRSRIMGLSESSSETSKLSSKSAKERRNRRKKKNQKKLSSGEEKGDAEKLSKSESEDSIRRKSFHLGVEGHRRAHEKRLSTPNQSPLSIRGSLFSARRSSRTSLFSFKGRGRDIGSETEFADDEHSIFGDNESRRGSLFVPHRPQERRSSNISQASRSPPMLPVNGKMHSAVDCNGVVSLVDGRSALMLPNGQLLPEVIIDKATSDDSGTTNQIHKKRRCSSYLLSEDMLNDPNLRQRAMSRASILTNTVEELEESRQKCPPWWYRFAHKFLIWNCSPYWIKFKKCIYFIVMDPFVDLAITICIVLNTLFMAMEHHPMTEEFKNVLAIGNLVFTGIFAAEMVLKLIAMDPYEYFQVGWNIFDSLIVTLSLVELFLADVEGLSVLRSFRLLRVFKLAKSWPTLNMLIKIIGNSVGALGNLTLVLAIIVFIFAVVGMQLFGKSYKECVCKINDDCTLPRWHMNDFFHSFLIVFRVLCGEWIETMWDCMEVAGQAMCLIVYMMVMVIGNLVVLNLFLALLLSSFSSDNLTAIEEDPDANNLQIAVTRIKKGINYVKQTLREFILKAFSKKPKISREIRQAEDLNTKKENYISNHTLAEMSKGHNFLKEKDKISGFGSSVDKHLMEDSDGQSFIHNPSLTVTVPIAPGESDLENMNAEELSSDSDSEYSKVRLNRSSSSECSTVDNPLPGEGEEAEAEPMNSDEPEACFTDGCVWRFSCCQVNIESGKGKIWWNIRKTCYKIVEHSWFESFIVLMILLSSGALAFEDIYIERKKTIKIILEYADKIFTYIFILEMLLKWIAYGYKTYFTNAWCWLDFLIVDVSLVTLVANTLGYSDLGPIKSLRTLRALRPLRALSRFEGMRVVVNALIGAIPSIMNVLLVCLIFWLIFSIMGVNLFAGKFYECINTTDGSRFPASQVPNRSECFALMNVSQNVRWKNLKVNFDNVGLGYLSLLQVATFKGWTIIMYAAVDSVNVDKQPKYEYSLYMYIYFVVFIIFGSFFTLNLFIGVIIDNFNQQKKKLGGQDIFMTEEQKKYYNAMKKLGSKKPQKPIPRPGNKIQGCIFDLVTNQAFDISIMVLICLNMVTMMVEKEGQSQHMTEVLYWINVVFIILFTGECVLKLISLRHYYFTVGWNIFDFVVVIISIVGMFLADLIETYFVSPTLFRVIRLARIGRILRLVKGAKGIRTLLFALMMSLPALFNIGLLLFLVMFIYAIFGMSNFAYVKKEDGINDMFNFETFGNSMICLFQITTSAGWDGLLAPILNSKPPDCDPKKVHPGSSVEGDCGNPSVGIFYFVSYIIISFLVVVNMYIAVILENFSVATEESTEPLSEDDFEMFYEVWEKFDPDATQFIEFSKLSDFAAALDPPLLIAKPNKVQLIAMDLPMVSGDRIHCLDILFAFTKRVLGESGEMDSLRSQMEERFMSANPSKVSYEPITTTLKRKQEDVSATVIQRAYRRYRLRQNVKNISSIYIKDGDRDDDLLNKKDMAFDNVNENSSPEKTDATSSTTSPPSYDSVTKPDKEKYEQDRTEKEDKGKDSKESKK

Row | Compound | inhibition at 3 µM [1] [%] | inhibition at 3 µM [2] [%] | Papp at 4 h, 50 uM [3] [nm/s] | inhibition at 10 µM [1] [%] | inhibition at 10 µM [2] [%] | inhibition at 1000 µM ([2]; 1,000 μM test concentration) [%]
1 | CCOC(=O)c1cccc(OCC)c1NC(=O)C[P+]1(Cc2ccccc2)CCCCC1 [Compound 20] | > 90 | < 40 | < 1 |  |  | 
2 | CCOC(=O)c1cccc(C)c1NC(=O)C[P+]1(Cc2ccccc2)CCCCC1 [Compound 13] | > 90 | 40 to 70 | < 1 |  |  | 
3 | Cc1cccc(C)c1NC(=O)C[P+]1(Cc2ccccc2)CCCCCC1 [Compound 3, 1-benzyl-1-(2-((2,6-dimethylphenyl)amino)-2-oxoethyl) phosphepan-1-ium bromide] |  |  | < 1 | > 95 | 40 to 70 | 
4 | CCOC(=O)c1cccc(F)c1NC(=O)C[P+]1(Cc2ccccc2)CCCCC1 [Compound 15] | 70 to 90 | < 40 | < 1 |  |  | 
5 | CCC(C(=O)Nc1c(C)cccc1C)[P+](c1ccccc1)(c1ccccc1)c1ccccc1 (centres unmarked) [Compound 9, (1-((2,6-dimethylphenyl)amino)-1-oxobutan-2-yl) triphenylphosphonium formate] |  |  | 20 to 100 | > 95 |  | 
6 | COC(=O)c1cccc(C)c1NC(=O)C[P+]1(Cc2ccccc2)CCCCC1 [Compound 16] | 70 to 90 |  |  |  |  | 
7 | CCOC(=O)c1cccc(Cl)c1NC(=O)C[P+]1(Cc2ccccc2)CCCCC1 [Compound 17] | > 90 | 40 to 70 | > 100 |  |  | 
8 | CCC(C(=O)Nc1c(C#N)cccc1C(=O)OC)[P+]1(Cc2ccccc2)CCCCC1 (centres unmarked) [Compound 12] | 70 to 90 |  |  |  |  | 
9 | CCOC(=O)c1cccc(CC)c1NC(=O)C[P+]1(Cc2ccccc2)CCCCC1 [Compound 19] | 70 to 90 |  | < 1 |  | 40 to 70 | 
10 | Cc1cccc(C)c1NC(=O)C[P+](c1ccccc1)(c1ccccc1)c1ccccc1.O=C[O-] [Compound 8, (2-((2,6-dimethylphenyl)amino)-2-oxoethyl) triphenylphosphonium formate] |  | 40 to 70 | < 1 | > 95 |  | 
11 | COC(=O)c1cccc(C)c1NC(=O)C[P+](c1ccccc1)(c1ccccc1)c1ccccc1 [Compound 23] | < 40 |  | < 1 |  |  | 
12 | Cc1cccc(C(=O)OC(C)(C)C)c1NC(=O)C[P+]1(Cc2ccccc2)CCCCC1 [Compound 14] | 40 to 70 |  | < 1 |  |  | 
13 | CCC(C(=O)Nc1c(C)cccc1C(=O)OC)[P+]1(Cc2ccccc2)CCCCC1 (centres unmarked) [Compound 11] | 70 to 90 |  | < 1 |  |  | 

The remaining lines, values ahead:

Row | inhibition at 3 µM [1] [%] | inhibition at 3 µM [2] [%] | Papp at 4 h, 50 uM [3] [nm/s] | inhibition at 10 µM [1] [%] | inhibition at 10 µM [2] [%] | inhibition at 1000 µM ([2]; 1,000 μM test concentration) [%] | Compound
14 |  | 40 to 70 | < 1 | > 95 |  |  | CCC(C(=O)Nc1c(C)cccc1C)[P+]1(Cc2ccccc2)CCCCC1 (centres unmarked) [Compound 10, 1-benzyl-1-(1-((2,6-dimethylphenyl)amino)-1-oxobutan-2-yl)phosphinan-1-ium formate]
15 |  |  | < 1 | 70 to 95 |  |  | CC[P+](CC)(CC(=O)Nc1c(C)cccc1C)CC(=O)Nc1c(C)cccc1C [Compound 6, bis (2-((2,6-dimethylphenyl)amino)-2-oxoethyl) diethyl phosphonium acetate]
16 |  |  | > 100 | 40 to 70 |  |  | CCC(C(=O)Nc1c(C)cccc1C)[P+](CC)(CC)CC (centres unmarked) [Compound 2, (1-((2,6-dimethylphenyl)amino)-1-oxobutan-2-yl) triethylphosphonium carbonate]
17 |  |  | 20 to 100 | > 95 |  |  | CCCC[P+](CCCC)(CCCC)CC(=O)Nc1c(C)cccc1C.[Br-] [Compound 7, tri-n-butyl (2-((2,6-dimethylphenyl)amino)-2-oxoethyl) phosphonium bromide]
18 | < 40 |  | < 1 |  |  |  | CC[P+](CC)(CC)CC(=O)Nc1c(C)cccc1C(=O)OC.[Br-] [Compound 21]
19 | 70 to 90 |  | < 1 |  |  |  | CCCC[P+](CCCC)(CCCC)CC(=O)Nc1c(C)cccc1C(=O)OC.[Br-] [Compound 22]
20 |  |  | 1 to 20 | 70 to 95 | < 40 |  | Cc1cccc(C)c1NC(=O)C[P+]1(Cc2ccccc2)CCCC1 [Compound 5, 1-benzyl-1-(2-((2,6-dimethylphenyl)amino)-2-oxoethyl) phospholan-1-ium bromide]
21 |  |  | < 1 | 70 to 95 |  | < 40 | CC[P+](CC)(CC)CC(=O)Nc1c(C)cccc1C [Compound 1, (2-((2,6-dimethylphenyl)amino)-2-oxoethyl) triethylphosphonium bromide]
22 |  |  | 1 to 20 | > 95 | 40 to 70 |  | Cc1cccc(C)c1NC(=O)C[P+]1(Cc2ccccc2)CCCCC1.[Br-] [Compound 4, 1-benzyl-1-(2-((2,6-dimethylphenyl)amino)-2-oxoethyl) phosphinan-1-ium bromide]
